25 compounds from patent US12630534B2 (TAKEDA PHARMACEUTICAL COMPANY LIMITED, priority 2020, dated 2026) can be followed below.

One experiment concerns the target T1, human GPR139 (Homo sapiens, UniProt Q6DWJ6).
T1 construct: expressed in transfected cells; host or cells: CHO-TREx (Life Technologies) cells, expression induced with doxycycline
T1 sequence (Q6DWJ6 1-353): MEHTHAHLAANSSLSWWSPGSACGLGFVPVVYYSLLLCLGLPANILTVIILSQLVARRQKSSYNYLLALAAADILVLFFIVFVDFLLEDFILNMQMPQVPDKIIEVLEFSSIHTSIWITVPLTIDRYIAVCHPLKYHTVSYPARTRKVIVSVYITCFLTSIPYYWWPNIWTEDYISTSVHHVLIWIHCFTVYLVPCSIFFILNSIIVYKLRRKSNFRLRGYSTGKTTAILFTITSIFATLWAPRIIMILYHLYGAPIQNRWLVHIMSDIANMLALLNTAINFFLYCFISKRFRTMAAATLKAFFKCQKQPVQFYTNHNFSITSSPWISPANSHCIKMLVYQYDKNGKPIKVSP
As to the kind of experiment: Inhibition rate of the amount of IP1 in GPR139-expressed CHO cells (inverse agonist assay, Test Example 2). Particulars: CHO, relative value, inhibition rate of Example Compound 2 in Test Example 1 defined as 100%. Format: cell-based. The method in brief:
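CHO-TREx cells with doxycycline-inducible human GPR139 (2 μg/mL, 17 h) were incubated with compound at 2000 cells/well for 40 min at 37° C. IP1 quantified by HTRF (665/615 nm ratio ×10000); inhibition rate expressed relative to a reference compound defined as […].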
What is called inhibition is the change of the read-out against control, counted positive when it falls. Take `CCn1cc(Cn2cc(C)n(-c3cc(C4CCC(F)(F)CC4)cc(C(F)(F)F)c3)c2=O)cn1` [Example 33, 3-[3-(4,4-difluorocyclohexyl)-5-(trifluoromethyl)phenyl]-1-[(1-ethyl-1H-pyrazol-4-yl)methyl]-4-methyl-1,3-dihydro-2H-imidazol-2-one]: the inhibition at 30 µM was 100%.
As for `CCn1cc(Cn2cnn(-c3cc(N4CCO[C@H](C)C4)cc(C(F)(F)F)c3F)c2=O)cn1` [Example 27, 4-[(1-ethyl-1H-pyrazol-4-yl)methyl]-2-{2-fluoro-5-[(2R)-2-methylmorpholin-4-yl]-3-(trifluoromethyl)phenyl}-2,4-dihydro-3H-1,2,4-triazol-3-one], the inhibition at 30 µM worked out at 99%.
`CCn1cc(Cn2ccn(-c3cc(OC4CCOCC4)cc(C(F)(F)F)c3F)c2=O)cn1` [Example 116, 1-[(1-ethyl-1H-pyrazol-4-yl)methyl]-3-{2-fluoro-5-[(oxan-4-yl)oxy]-3-(trifluoromethyl)phenyl}-1,3-dihydro-2H-imidazol-2-one]: the inhibition at 30 µM amounted to 101%.
The same measure, in the same setting: with `CCn1cc(Cn2c(C)cn(-c3cc(N(C)C4CCOCC4)cc(C(F)(F)F)c3F)c2=O)cn1` [Example 53, 3-[(1-ethyl-1H-pyrazol-4-yl)methyl]-1-{2-fluoro-5-[methyl(oxan-4-yl)amino]-3-(trifluoromethyl)phenyl}-4-methyl-1,3-dihydro-2H-imidazol-2-one] the figure was 101%.
With `CCn1cc(Cn2ccn(-c3cc(N4CCOC(F)(F)C4)cc(C(F)(F)F)c3F)c2=O)cn1` [Example 40, 1-[5-(2,2-difluoromorpholin-4-yl)-2-fluoro-3-(trifluoromethyl)phenyl]-3-[(1-ethyl-1H-pyrazol-4-yl)methyl]-1,3-dihydro-2H-imidazol-2-one], the inhibition at 30 µM came out at 101%.
For `CC(C)n1cc(Cn2ccn(-c3cc(C(F)(F)F)cc(N4CCO[C@H](C)C4)n3)c2=O)cn1` [Example 102, 1-{6-[(2R)-2-methylmorpholin-4-yl]-4-(trifluoromethyl)pyridin-2-yl}-3-{[1-(propan-2-yl)-1H-pyrazol-4-yl]methyl}-1,3-dihydro-2H-imidazol-2-one], the inhibition at 30 µM was 105%.
With `CCn1cc(Cn2c(C)c(C)n(-c3cc(OCC(F)(F)F)cc(N4CCO[C@H](C)C4)c3)c2=O)cn1` [Example 47, 1-[(1-ethyl-1H-pyrazol-4-yl)methyl]-4,5-dimethyl-3-{3-[(2R)-2-methylmorpholin-4-yl]-5-(2,2,2-trifluoroethoxy)phenyl}-1,3-dihydro-2H-imidazol-2-one], the inhibition at 30 µM was 101%.
Consider `CCn1cc(Cn2c(C)c(C)n(-c3cc(OCC(F)F)cc(N4CCO[C@H](C)C4)c3)c2=O)cn1` [Example 46, 1-{3-(2,2-difluoroethoxy)-5-[(2R)-2-methylmorpholin-4-yl]phenyl}-3-[(1-ethyl-1H-pyrazol-4-yl)methyl]-4,5-dimethyl-1,3-dihydro-2H-imidazol-2-one], for which the inhibition at 30 µM was 100%.
The same measure, in the same setting: for `Cc1nn(-c2cc(N3CCO[C@H](C)C3)cc(OC(F)(F)F)c2F)c(=O)n1Cc1cnn(C(C)C)c1` [Example 159, 2-{2-fluoro-5-[(2R)-2-methylmorpholin-4-yl]-3-(trifluoromethoxy)phenyl}-5-methyl-4-{[1-(propan-2-yl)-1H-pyrazol-4-yl]methyl}-2,4-dihydro-3H-1,2,4-triazol-3-one] the value was 99%; for `CCc1cc(N2CCO[C@H](C)C2)cc(-n2cc(C)n(Cc3cnn(CC)c3)c2=O)c1F` [Example 81, 1-{3-ethyl-2-fluoro-5-[(2R)-2-methylmorpholin-4-yl]phenyl}-3-[(1-ethyl-1H-pyrazol-4-yl)methyl]-4-methyl-1,3-dihydro-2H-imidazol-2-one], 98%.
Turning to `CCn1cc(Cn2cc(C)n(-c3cc(-c4ccc(F)cc4)cc(C(F)(F)F)c3)c2=O)cn1` [Example 3, 1-[(1-ethyl-1H-pyrazol-4-yl)methyl]-3-[4′-fluoro-5-(trifluoromethyl)[1,1′-biphenyl]-3-yl]-4-methyl-1,3-dihydro-2H-imidazol-2-one], the inhibition at 30 µM was found to be 101%.
In the case of `CCn1cc(Cn2ccn(-c3cc(N4CCO[C@H](C)C4)cc(C4CC4)c3F)c2=O)cn1` [Example 44, 1-{3-cyclopropyl-2-fluoro-5-[(2R)-2-methylmorpholin-4-yl]phenyl}-3-[(1-ethyl-1H-pyrazol-4-yl)methyl]-1,3-dihydro-2H-imidazol-2-one], the inhibition at 30 µM is 100%.
With `CCn1cc(Cn2cc(C)n(-c3cc(OCC4CC(F)(F)C4)cc(C4CC4)c3)c2=O)cn1` [Example 67, 3-{3-cyclopropyl-5-[(3,3-difluorocyclobutyl)methoxy]phenyl}-1-[(1-ethyl-1H-pyrazol-4-yl)methyl]-4-methyl-1,3-dihydro-2H-imidazol-2-one], the inhibition at 30 µM is 98%.
Turning to `CCn1cc(Cn2cc(C)n(-c3cc(OCC4CC4(F)F)cc(C(F)(F)F)c3)c2=O)cn1` (stereo not shown) [Example 22, 3-{3-[(2,2-difluorocyclopropyl)methoxy]-5-(trifluoromethyl)phenyl}-1-[(1-ethyl-1H-pyrazol-4-yl)methyl]-4-methyl-1,3-dihydro-2H-imidazol-2-one], the inhibition at 30 µM was determined as 100%.
`CCn1cc(Cn2ccn(-c3cc(N4CCO[C@H](C)C4)cc(OC(F)(F)F)c3F)c2=O)cn1` [Example 153, 1-[(1-ethyl-1H-pyrazol-4-yl)methyl]-3-{2-fluoro-5-[(2R)-2-methylmorpholin-4-yl]-3-(trifluoromethoxy)phenyl}-1,3-dihydro-2H-imidazol-2-one]: the inhibition at 30 µM was 100%.
With `CCn1cc(Cn2c(C)cn(-c3nc(N(C)C4CCOCC4)cc(C(F)(F)F)c3Cl)c2=O)cn1` [Example 83, 1-{3-chloro-6-[methyl(oxan-4-yl)amino]-4-(trifluoromethyl)pyridin-2-yl}-3-[(1-ethyl-1H-pyrazol-4-yl)methyl]-4-methyl-1,3-dihydro-2H-imidazol-2-one], the inhibition at 30 µM was 99%.
For `CCn1ncc(Cn2ccn(-c3cc(N4CCO[C@H](C)C4)cc(C(F)(F)F)c3F)c2=O)c1C` [Example 13, 1-[(1-ethyl-5-methyl-1H-pyrazol-4-yl)methyl]-3-{2-fluoro-5-[(2R)-2-methylmorpholin-4-yl]-3-(trifluoromethyl)phenyl}-1,3-dihydro-2H-imidazol-2-one], the inhibition at 30 µM is 101%.
For the compound `CCn1cc(Cn2cc(C)n(-c3cc(OCC(F)(F)F)cc(N4CCO[C@H](C)C4)c3)c2=O)cn1` [Example 72, 1-[(1-ethyl-1H-pyrazol-4-yl)methyl]-4-methyl-3-{3-[(2R)-2-methylmorpholin-4-yl]-5-(2,2,2-trifluoroethoxy)phenyl}-1,3-dihydro-2H-imidazol-2-one], the inhibition at 30 µM was determined as 99%.
`CCn1cc(Cn2c(C)c(C)n(-c3cccc(N4CCO[C@H](C)C4)n3)c2=O)cn1` [Example 163, 1-[(1-ethyl-1H-pyrazol-4-yl)methyl]-4,5-dimethyl-3-{6-[(2R)-2-methylmorpholin-4-yl]pyridin-2-yl}-1,3-dihydro-2H-imidazol-2-one]: the inhibition at 30 µM was found to be 96%.
With `CCn1cc(Cn2cc(C)n(-c3cc(OCC(F)(F)F)cc(N4CCO[C@H](C)C4)n3)c2=O)cn1` [Example 105, 1-[(1-ethyl-1H-pyrazol-4-yl)methyl]-4-methyl-3-{6-[(2R)-2-methylmorpholin-4-yl]-4-(2,2,2-trifluoroethoxy)pyridin-2-yl}-1,3-dihydro-2H-imidazol-2-one], the inhibition at 30 µM came to 103%.
With `CC(C)n1cc(Cn2ccn(-c3nc(N4CCO[C@H](C)C4)cc(C(F)(F)F)c3F)c2=O)cn1` [Example 75, 1-{3-fluoro-6-[(2R)-2-methylmorpholin-4-yl]-4-(trifluoromethyl)pyridin-2-yl}-3-{[1-(propan-2-yl)-1H-pyrazol-4-yl]methyl}-1,3-dihydro-2H-imidazol-2-one], the inhibition at 30 µM was 99%.
Regarding `Cc1c(C)n(-c2cc(C(F)F)cc(N(C)C3CCOCC3)c2)c(=O)n1Cc1cnn(C(C)C)c1` [Example 76, 1-{3-(difluoromethyl)-5-[methyl(oxan-4-yl)amino]phenyl}-4,5-dimethyl-3-{[1-(propan-2-yl)-1H-pyrazol-4-yl]methyl}-1,3-dihydro-2H-imidazol-2-one], the inhibition at 30 µM amounted to 97%.
Turning to `CCc1cc(N2CCO[C@H](C)C2)cc(-n2ccn(Cc3cnn(CC)c3)c2=O)c1F` [Example 80, 1-{3-ethyl-2-fluoro-5-[(2R)-2-methylmorpholin-4-yl]phenyl}-3-[(1-ethyl-1H-pyrazol-4-yl)methyl]-1,3-dihydro-2H-imidazol-2-one], the inhibition at 30 µM amounted to 99%.
On to `CCn1cc(Cn2c(C(F)(F)F)cn(-c3cc(N4CCO[C@H](C)C4)cc(C4CC4(F)F)c3F)c2=O)cn1` (stereo partly drawn) [Example 143, 1-{3-(2,2-difluorocyclopropyl)-2-fluoro-5-[(2R)-2-methylmorpholin-4-yl]phenyl}-3-[(1-ethyl-1H-pyrazol-4-yl)methyl]-4-(trifluoromethyl)-1,3-dihydro-2H-imidazol-2-one], for which the inhibition at 30 µM turned out to be 101%.

Staying with this experiment, now noted: relative value, inhibition rate of Example Compound 2 in Test Example 1 defined as 100%, 30 µM.
As to `CCn1cc(Cn2ccn(-c3cc(-c4ccc(F)cc4)cc(C4CC4(F)F)c3F)c2=O)cn1` (stereo not shown) [Example 144, 1-[5-(2,2-difluorocyclopropyl)-4,4′-difluoro[1,1′-biphenyl]-3-yl]-3-[(1-ethyl-1H-pyrazol-4-yl)methyl]-1,3-dihydro-2H-imidazol-2-one], the “Inhibition Rate at 30 μM” value was 101%.
